# From patent publication US8580803B2, “Substituted pyrrolo-aminopyrimidine compounds” (ArQule, Inc., priority 2009, dated 2013)
# Tested on: not given
# Experiment: not given
# Conditions: not given
row,melting point,SMILES
1,256 to 258 °C,CC(C)(C)OC(=O)NCc1ccc(Nc2ncnc3[nH]cc(C(=O)c4ccccc4)c23)cc1
2,> 300 °C,O=C(Nc1ccc(Nc2ncnc3[nH]cc(C(=O)c4ccccc4)c23)cc1)c1ccccc1
3,210 to 212 °C,NCc1cccc(Nc2ncnc3[nH]cc(C(=O)c4ccccc4)c23)c1
4,> 300 °C,COC(=O)c1cc(NC(=O)CNC(C)=O)cc(Nc2ncnc3[nH]cc(C(=O)c4ccccc4)c23)c1
5,> 300 °C,CC(=O)NCC(=O)Nc1cc(Cl)cc(Nc2ncnc3[nH]cc(C(=O)c4ccccc4)c23)c1
6,140 to 142 °C,CC(=O)Nc1cccc(Nc2ncnc3c2c(C(=O)c2ccccc2)cn3C)c1
7,> 300 °C,O=C(c1ccccc1)c1c[nH]c2ncnc(Nc3cccc(CCO)c3)c12
8,> 300 °C,CC(=O)Nc1cccc(Nc2ncnc3[nH]cc(C(=O)c4cccc(F)c4)c23)c1
9,> 300 °C,CC(=O)Nc1cccc(Nc2ncnc3[nH]cc(C(=O)c4ccccc4C)c23)c1
10,> 300 °C,Nc1cc(Cl)cc(Nc2ncnc3[nH]cc(C(=O)c4ccccc4)c23)c1
11,> 300 °C,CNC(=O)c1cccc(Nc2ncnc3[nH]cc(C(=O)c4cccc(F)c4)c23)c1
12,> 300 °C,O=C(NCCCN1CCCCC1)c1cccc(Nc2ncnc3[nH]cc(C(=O)c4ccccc4)c23)c1

# Target: T1, ACK1 (110-489) (Homo sapiens, UniProt Q07912)
# T1 construct: ACK1 110-489 (12.5 μl) were added to each well
# T1 sequence (Q07912 110-489, species assumed): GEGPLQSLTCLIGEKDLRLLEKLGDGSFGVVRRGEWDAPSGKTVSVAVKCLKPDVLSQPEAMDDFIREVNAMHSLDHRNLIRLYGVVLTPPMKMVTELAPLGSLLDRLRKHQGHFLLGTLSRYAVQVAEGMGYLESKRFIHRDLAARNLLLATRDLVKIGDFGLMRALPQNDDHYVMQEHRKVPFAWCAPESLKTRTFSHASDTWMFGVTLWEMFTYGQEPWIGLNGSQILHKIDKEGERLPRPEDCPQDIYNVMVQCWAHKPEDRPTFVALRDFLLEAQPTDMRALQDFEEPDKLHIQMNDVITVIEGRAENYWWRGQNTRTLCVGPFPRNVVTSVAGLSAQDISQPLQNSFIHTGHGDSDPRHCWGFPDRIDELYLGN
# Experiment: ACK1 Activity Assay (AlphaScreen, PYK2-derived peptide)
# Format: biochemical
# Conditions: Average of ACK1(110-489), IC50, AlphaScreen (Pyk2); read-out: ACK1 (110-489) IC50
# Description: The extent of peptide phosphorylation was determined by using acceptor beads conjugated to phosphotyrosine antibody that recognizes the phosphorylated peptide and donor beads conjugated to streptavidin that binds to the biotin on the peptide. Excitation of the donor beads converted ambient oxygen to excited singlet oxygen which when in close proximity to acceptor beads, reacted with acceptor beads where the signal was amplified.
# Test inhibitors and controls (N-(2,6-dimethylphenyl)-4-(2-ethoxyphenoxy)-2-[(4-piperazin-1-ylphenyl)amino]pyrimidine-5-carboxamide) were prepared in 10% DMSO at 10× the desired final concentration. […] After a 20-min incubation at room temperature, the kinase reaction was initiated by the addition of 10 μl of PYK2/ATP mixture. […] The plates were incubated for 60 min at room temperature. The reaction was stopped by the addition of 10 μl stop/detection mixture which contains EDTA (final concentration is 10 mM), AlphaScreen™ Streptavidin Donor beads (final concentration is 500 ng/well) and AlphaScreen™ Phospho-tyrosine (P-Tyr-100) Acceptor beads (final concentration is 500 ng/well) were diluted in assay buffer. This reagent addition step was performed in the dark because the AlphaScreen™ beads are light-sensitive. The plate was incubated for 60 min at room temperature in the dark and the plates were read on the Perkin Elmer Envision Multilabel plate reader ([…]).
row,IC50,SMILES
1,0.798 µM,"O=C(Cn1ccnc1)Nc1ccc(Nc2ncnc3[nH]cc(C(=O)c4ccccc4)c23)cc1 [2-(1H-imidazol-1-yl)-N-(4-{[5-(phenylcarbonyl)-7H-pyrrolo[2,3-d]pyrimidin-4-yl]amino}phenyl)acetamide]"
2,69 µM,"COCc1ccc(CC(=O)Nc2ccc(Nc3ncnc4[nH]cc(C(=O)c5ccccc5)c34)cc2)cc1 [2-[4-(methoxymethyl)phenyl]-N-(4-{[5-(phenylcarbonyl)-7H-pyrrolo[2,3-d]pyrimidin-4-yl]amino}phenyl)acetamide]"
3,31.4 µM,"O=C(Nc1ccc(N2CCCCC2)cc1)c1cccc(Nc2ncnc3[nH]cc(C(=O)c4ccccc4)c23)c1 [3-[(5-benzoyl-7H-pyrrolo[2,3-d]pyrimidin-4-yl)amino]-N-(4-piperidin-1-ylphenyl)benzamide]"
4,0.776 µM,"CC(=O)NCCC(=O)Nc1ccc(Nc2ncnc3[nH]cc(C(=O)c4ccccc4)c23)cc1 [3-acetamido-N-(4-((5-benzoyl-7H-pyrrolo[2,3-d]pyrimidin-4-yl)amino)phenyl)propanamide]"
5,28.9 µM,"O=C(Nc1ccc(Nc2ncnc3[nH]cc(C(=O)c4ccccc4)c23)cc1)c1ccncc1Cl [3-chloro-N-(4-{[5-(phenylcarbonyl)-7H-pyrrolo[2,3-d]pyrimidin-4-yl]amino}phenyl)pyridine-4-carboxamide]"
6,2.57 µM,"CN(C)CCCC(=O)Nc1ccc(Nc2ncnc3[nH]cc(C(=O)c4ccccc4)c23)cc1 [4-(dimethylamino)-N-(4-{[5-(phenylcarbonyl)-7H-pyrrolo[2,3-d]pyrimidin-4-yl]amino}phenyl)butanamide]"
7,10.9 µM,"O=C(Nc1ccc(Nc2ncnc3[nH]cc(C(=O)c4ccccc4)c23)cc1)c1ccc(CN2CCOCC2)cc1 [4-(morpholin-4-ylmethyl)-N-(4-{[5-(phenylcarbonyl)-7H-pyrrolo[2,3-d]pyrimidin-4-yl]amino}phenyl)benzamide]"
8,1.02 µM,"COCCCC(=O)Nc1ccc(Nc2ncnc3[nH]cc(C(=O)c4ccccc4)c23)cc1 [4-methoxy-N-(4-{[5-(phenylcarbonyl)-7H-pyrrolo[2,3-d]pyrimidin-4-yl]amino}phenyl)butanamide]"
9,61.5 µM,"O=C(c1ccccc1)c1c[nH]c2ncnc(Nc3ccc4cc[nH]c4c3)c12 [(4-((1H-indol-6-yl)amino)-7H-pyrrolo[2,3-d]pyrimidin-5-yl)(phenyl)methanone]"
10,4.53 µM,"COc1ccc(Nc2ncnc3[nH]cc(C(=O)c4ccccc4)c23)c(OC)c1 [(4-((2,4-dimethoxy-phenyl)amino)-7H-pyrrolo[2,3-d]pyrimidin-5-yl)(phenyl)methanone]"
11,0.241 µM,"CN(C)CC(=O)Nc1ccc(Nc2ncnc3[nH]cc(C(=O)c4ccccc4)c23)cc1 [N-(4-((5-benzoyl-7H-pyrrolo[2,3-d]pyrimidin-4-yl)amino)phenyl)-2-(dimethylamino)acetamide]"
12,0.415 µM,"CN(C)CCC(=O)Nc1ccc(Nc2ncnc3[nH]cc(C(=O)c4ccccc4)c23)cc1 [N-(4-((5-benzoyl-7H-pyrrolo[2,3-d]pyrimidin-4-yl)amino)phenyl)-3-(dimethylamino)propanamide]"
13,1.27 µM,"O=C(c1ccccc1)c1c[nH]c2ncnc(Nc3ccc(NC(=O)C4CCN(c5ccncc5)CC4)cc3)c12 [N-(4-{[5-(phenylcarbonyl)-7H-pyrrolo[2,3-d]pyrimidin-4-yl]amino}phenyl)-1-pyridin-4-ylpiperidine-4-carboxamide]"
14,4.39 µM,"O=C(CCc1cccnc1)Nc1ccc(Nc2ncnc3[nH]cc(C(=O)c4ccccc4)c23)cc1 [N-(4-{[5-(phenylcarbonyl)-7H-pyrrolo[2,3-d]pyrimidin-4-yl]amino}phenyl)-3-pyridin-3-ylpropanamide]"
15,0.646 µM,"NC(=O)CCC(=O)Nc1ccc(Nc2ncnc3[nH]cc(C(=O)c4ccccc4)c23)cc1 [N-(4-{[5-(phenylcarbonyl)-7H-pyrrolo[2,3-d]pyrimidin-4-yl]amino}phenyl)butanediamide]"
16,4.77 µM,"CC(C)C(=O)Nc1ccc(Nc2ncnc3[nH]cc(C(=O)c4ccccc4)c23)cc1 [N-{4-[(5-benzoyl-7H-pyrrolo[2,3-d]pyrimidin-4-yl)amino]phenyl}-2-methylpropanamide]"

row,IC50,SMILES
1,3.77 µM,"CCCC(=O)Nc1ccc(Nc2ncnc3[nH]cc(C(=O)c4ccccc4)c23)cc1 [N-{4-[(5-benzoyl-7H-pyrrolo[2,3-d]pyrimidin-4-yl)amino]phenyl}butanamide]"
2,1.43 µM,"CC(=O)Nc1ccc(Nc2ncnc3[nH]cc(C(=O)c4ccccc4)c23)cc1 [drawing 241, N-{4-[(5-benzoyl-7H-pyrrolo[2,3-d]pyrimidin-4-yl)amino]phenyl}acetamide]"
3,0.189 µM,"CNC(=O)c1cccc(Nc2ncnc3[nH]cc(C(=O)c4ccccc4C)c23)c1 [drawing 242, N-methyl-3-{[5-(2-methylbenzoyl)-7H-pyrrolo[2,3-d]pyrimidin-4-yl]amino}benzamide]"
4,1.26 µM,"CC(=O)Nc1cccc(Nc2ncnc3[nH]cc(C(=O)c4ccccc4C)c23)c1 [drawing 243, N-(3-{[5-(2-methylbenzoyl)-7H-pyrrolo[2,3-d]pyrimidin-4-yl]amino}phenyl)acetamide]"
5,0.914 µM,"CNC(=O)c1cccc(Nc2ncnc3[nH]cc(C(=O)c4cccc(F)c4)c23)c1 [drawing 244, 3-{[5-(3-fluorobenzoyl)-7H-pyrrolo[2,3-d]pyrimidin-4-yl]amino}-N-methylbenzamide]"
6,2.29 µM,"CC(=O)Nc1cccc(Nc2ncnc3[nH]cc(C(=O)c4cccc(F)c4)c23)c1 [drawing 245, N-(3-{[5-(3-fluorobenzoyl)-7H-pyrrolo[2,3-d]pyrimidin-4-yl]amino}phenyl)acetamide]"
7,1.47 µM,"O=C(Cc1cncc(Br)c1)Nc1cccc(Nc2ncnc3[nH]cc(C(=O)c4ccccc4)c23)c1 [drawing 251, N-{3-[(5-benzoyl-7H-pyrrolo[2,3-d]pyrimidin-4-yl)amino]phenyl}-2-(5-bromopyridin-3-yl)acetamide]"
8,0.446 µM,"NCc1ccc(Nc2ncnc3[nH]cc(C(=O)c4ccccc4)c23)cc1 [drawing 258, (4-{[4-(aminomethyl)phenyl]amino}-7H-pyrrolo[2,3-d]pyrimidin-5-yl)(phenyl)methanone]"
9,5.14 µM,"O=C(c1ccccc1)c1c[nH]c2ncnc(Nc3cccc(CCO)c3)c12 [drawing 259, (4-{[3-(2-hydroxyethyl)phenyl]amino}-7H-pyrrolo[2,3-d]pyrimidin-5-yl)(phenyl)methanone]"
10,28.1 µM,"O=C(Nc1ccccc1)Nc1cccc(Nc2ncnc3[nH]cc(C(=O)c4ccccc4)c23)c1 [drawing 260, 1-phenyl-3-(3-{[5-(phenylcarbonyl)-7H-pyrrolo[2,3-d]pyrimidin-4-yl]amino}phenyl)urea]"
11,6.65 µM,"CC(C)(C)NC(=O)Nc1cccc(Nc2ncnc3[nH]cc(C(=O)c4ccccc4)c23)c1 [drawing 274, 1-tert-butyl-3-(3-{[5-(phenylcarbonyl)-7H-pyrrolo[2,3-d]pyrimidin-4-yl]amino}phenyl)urea]"
12,1.81 µM,"CCNC(=O)Nc1cccc(Nc2ncnc3[nH]cc(C(=O)c4ccccc4)c23)c1 [drawing 275, 1-ethyl-3-(3-{[5-(phenylcarbonyl)-7H-pyrrolo[2,3-d]pyrimidin-4-yl]amino}phenyl)urea]"
13,0.24 µM,"O=C(c1ccccc1)c1c[nH]c2ncnc(Nc3cccc(CO)c3)c12 [drawing 276, (4-{[3-(hydroxymethyl)phenyl]amino}-7H-pyrrolo[2,3-d]pyrimidin-5-yl)(phenyl)methanone]"
14,2 µM,"COC(=O)c1cc(NC(=O)CNC(C)=O)cc(Nc2ncnc3[nH]cc(C(=O)c4ccccc4)c23)c1 [drawing 277, methyl 3-[(N-acetylglycyl)amino]-5-{[5-(phenylcarbonyl)-7H-pyrrolo[2,3-d]pyrimidin-4-yl]amino}benzoate]"
15,55.4 µM,"Cc1cccc(Nc2ncnc3[nH]cc(C(=O)c4ccccc4)c23)c1 [phenyl(4-(m-tolylamino)-7H-pyrrolo[2,3-d]pyrimidin-5-yl)methanone]"
